# Key:
# Assay type in all cases: in vivo
# posumbu knotweed [1] = assay: Test Example 3: herbicidal effects in soil treatment; settings: dose 3.2 g/a
# In short: (§1)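 Seeds were sown in sterilized diluvial soil and covered with about 1.5 cm of soil. Compounds, formulated as emulsifiable concentrates and diluted with water, were sprayed evenly over the soil surface at set doses in g/a. Herbicidal effect was scored on a rating scale three weeks later.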
# barnyardgrass [2] = assay: as above; settings: dose 3.2 g/a
# In short: as §1
# wild oat = assay: as above; settings: dose 3.2 g/a
# In short: as §1
# giant foxtail [3] = assay: as above; settings: dose 3.2 g/a
# In short: as §1
# common ragweed [4] = assay: as above; settings: dose 3.2 g/a
# In short: as §1
# water foxtail [5] = assay: as above; settings: dose 3.2 g/a
# In short: as §1
# beadstraw [6] = assay: as above; settings: dose 3.2 g/a
# In short: as §1
# Italian ryegrass [7] = assay: as above; settings: dose 3.2 g/a
# In short: as §1
# large crabgrass [8] = assay: as above; settings: dose 3.2 g/a
# In short: as §1
# redroot pigweed [9] = assay: as above; settings: dose 3.2 g/a
# In short: as §1
# common lambsquater [10] = assay: as above; settings: dose 3.2 g/a
# In short: as §1
# common chickweed [11] = assay: as above; settings: dose 3.2 g/a
# In short: as §1
# velvetleaf [12] = assay: as above; settings: dose 3.2 g/a
# In short: as §1
# barnyardgrass [13] = assay: Test Example 2: herbicidal effects during the vegetation period under submerged conditions; settings: treatment during the vegetation period under submerged conditions; dose 2.52 g/a
# In short: (§2)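 Barnyardgrass, bulrush and ducksalad were co-sown in alluvial soil flooded to 4 cm and grown in a greenhouse at 25 to 30° C. At the 1- or 2-leaf stage, water-diluted emulsifiable concentrates went onto the water surface at set doses (g/a). Herbicidal effect was scored three weeks later on a graded scale.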
# ducksalad [14] = assay: as above; settings: treatment during the vegetation period under submerged conditions; dose 2.52 g/a
# In short: as §2
# bulrush [15] = assay: as above; settings: treatment during the vegetation period under submerged conditions; dose 2.52 g/a
# In short: as §2
# barnyardgrass [16] = assay: Test Example 1: herbicidal effects in preemergence treatment under submerged conditions; settings: dose 2.52 g/a
# In short: (§3)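 Alluvial soil was flooded to 4 cm, sown with barnyardgrass, bulrush and ducksalad, and planted with 2.5-leaf rice seedlings. On the seeding day, water-diluted emulsifiable concentrates were applied to the water surface at set doses (g/a). After three weeks in a 25 to 30° C. greenhouse, mortality was scored 0–5.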
# ducksalad [17] = assay: as above; settings: dose 2.52 g/a
# In short: as §3
# bulrush [18] = assay: as above; settings: dose 2.52 g/a
# In short: as §3
# transplanted rice = assay: Test Example 1: preemergence treatment under submerged conditions, effect on crop; settings: dose 2.52 g/a
# In short: as §3
# posumbu knotweed [19] = assay: Test Example 4: herbicidal effect in foliage treatment; settings: dose 3.2 g/a, three weeks after application
# In short: (§4)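 Seeds were spot-sown in boxes of sterilized diluvial soil and raised in a greenhouse (25 to 30° C) for 14 days before a single foliar application. Compounds were applied as emulsifiable concentrates diluted with water, at predetermined doses in g/a. Injury was graded three weeks post-spray.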
# barnyardgrass [20] = assay: as above; settings: dose 3.2 g/a, three weeks after application
# In short: as §4
# giant foxtail [21] = assay: as above; settings: dose 3.2 g/a, three weeks after application
# In short: as §4
# common ragweed [22] = assay: as above; settings: dose 3.2 g/a, three weeks after application
# In short: as §4
# water foxtail [23] = assay: as above; settings: dose 3.2 g/a, three weeks after application
# In short: as §4
# beadstraw [24] = assay: as above; settings: dose 3.2 g/a, three weeks after application
# In short: as §4
# Italian ryegrass [25] = assay: as above; settings: dose 3.2 g/a, three weeks after application
# In short: as §4
# large crabgrass [26] = assay: as above; settings: dose 3.2 g/a, three weeks after application
# In short: as §4
# redroot pigweed [27] = assay: as above; settings: dose 3.2 g/a, three weeks after application
# In short: as §4
# common lambsquater [28] = assay: as above; settings: dose 3.2 g/a, three weeks after application
# In short: as §4
# common chickweed [29] = assay: as above; settings: dose 3.2 g/a, three weeks after application
# In short: as §4
# velvetleaf [30] = assay: as above; settings: dose 3.2 g/a, three weeks after application
# In short: as §4
compound,measurement,setting,value
CCC(=O)N(c1ccccc1CN1COC2(CCCC2)CC1=O)S(=O)(=O)C(F)(F)F [II-65],"M: posumbu knotweed, herbicidal effect (evaluation scale 0-5)",posumbu knotweed [1],4 (mortality of at least 70% and less than 90%)
same,"A: barnyardgrass, herbicidal effect (evaluation scale 0-5)",barnyardgrass [2],5 (mortality of 90% or above (nearly complete death))
same,"F: wild oat, herbicidal effect (evaluation scale 0-5)",wild oat,0 (mortality of less than 5% (almost ineffective))
same,"E: giant foxtail, herbicidal effect (evaluation scale 0-5)",giant foxtail [3],5 (mortality of 90% or above (nearly complete death))
same,"J: common ragweed, herbicidal effect (evaluation scale 0-5)",common ragweed [4],4 (mortality of at least 70% and less than 90%)
same,"G: water foxtail, herbicidal effect (evaluation scale 0-5)",water foxtail [5],5 (mortality of 90% or above (nearly complete death))
same,"O: beadstraw, herbicidal effect (evaluation scale 0-5)",beadstraw [6],0 (mortality of less than 5% (almost ineffective))
same,"H: Italian ryegrass, herbicidal effect (evaluation scale 0-5)",Italian ryegrass [7],5 (mortality of 90% or above (nearly complete death))
same,"D: large crabgrass, herbicidal effect (evaluation scale 0-5)",large crabgrass [8],5 (mortality of 90% or above (nearly complete death))
same,"K: redroot pigweed, herbicidal effect (evaluation scale 0-5)",redroot pigweed [9],2 (mortality of at least 20% and less than 40%)
same,"L: common lambsquater, herbicidal effect (evaluation scale 0-5)",common lambsquater [10],0 (mortality of less than 5% (almost ineffective))
same,"N: common chickweed, herbicidal effect (evaluation scale 0-5)",common chickweed [11],5 (mortality of 90% or above (nearly complete death))
same,"I: velvetleaf, herbicidal effect (evaluation scale 0-5)",velvetleaf [12],3 (mortality of at least 40% and less than 70%)
same,"A: barnyardgrass, herbicidal effect (evaluation scale 0-5)",barnyardgrass [13],5 (mortality of 90% or above (nearly complete death))
same,"C: ducksalad, herbicidal effect (evaluation scale 0-5)",ducksalad [14],5 (mortality of 90% or above (nearly complete death))
same,"B: bulrush, herbicidal effect (evaluation scale 0-5)",bulrush [15],5 (mortality of 90% or above (nearly complete death))
same,"A: barnyardgrass, herbicidal effect (evaluation scale 0-5)",barnyardgrass [16],5 (mortality of 90% or above (nearly complete death))
same,"C: ducksalad, herbicidal effect (evaluation scale 0-5)",ducksalad [17],5 (mortality of 90% or above (nearly complete death))
same,"B: bulrush, herbicidal effect (evaluation scale 0-5)",bulrush [18],5 (mortality of 90% or above (nearly complete death))
same,"a: transplanted rice, effect on crop (evaluation scale 0-5)",transplanted rice,0 (mortality of less than 5% (almost ineffective))
same,"M: posumbu knotweed, herbicidal effect",posumbu knotweed [19],3 (mortality of at least 40% and less than 70%)
same,"A: barnyardgrass, herbicidal effect",barnyardgrass [20],3 (mortality of at least 40% and less than 70%)
same,"E: giant foxtail, herbicidal effect",giant foxtail [21],4 (mortality of at least 70% and less than 90%)
same,"J: common ragweed, herbicidal effect",common ragweed [22],3 (mortality of at least 40% and less than 70%)
same,"G: water foxtail, herbicidal effect",water foxtail [23],5 (mortality of 90% or above (nearly complete death))
same,"O: beadstraw, herbicidal effect",beadstraw [24],0 (mortality of less than 5% (almost ineffective))
same,"H: Italian ryegrass, herbicidal effect",Italian ryegrass [25],3 (mortality of at least 40% and less than 70%)
same,"D: large crabgrass, herbicidal effect",large crabgrass [26],3 (mortality of at least 40% and less than 70%)
same,"K: redroot pigweed, herbicidal effect",redroot pigweed [27],0 (mortality of less than 5% (almost ineffective))
same,"L: common lambsquater, herbicidal effect",common lambsquater [28],2 (mortality of at least 20% and less than 40%)
same,"N: common chickweed, herbicidal effect",common chickweed [29],5 (mortality of 90% or above (nearly complete death))
same,"I: velvetleaf, herbicidal effect",velvetleaf [30],3 (mortality of at least 40% and less than 70%)

# Reference: US20120029187A1, “HALOALKYLSULFONANILIDE DERIVATIVE” (Nissan Chemical Industries, Ltd., priority 2009, published 2012)
